This is an account of results in article PMC8986778, “Citrullination of glucokinase is linked to autoimmune diabetes” (Nature Communications, 2022).

One may read the IC50 as the concentration needed to halve the response being measured.

Experiment [1] deals with glucokinase. The following applies: randomized, double-blind and placebo-controlled study; cited from earlier work. An excerpt:
As mentioned above, ATP-dependent GK converts glucose to glucose-6-phosphate, the critical step in glucose metabolism. Alternative splicing of the GK gene results in three tissue-specific isoforms, isoform 1 (pancreas) and isoforms 2 and 3 (liver). The only difference among three GK isoforms is in the amino acid sequence of exon 1 in the first fifteen amino acids of human pancreatic glucokinase. Unlike other hexokinases, GK is not regulated by feedback inhibition by glucose-6-phosphate. Therefore, GK can constitutively trigger insulin secretion in pancreatic β-cells under high glucose cond ...

Experiment [2] relates to INS-1E cells. Description: Insulin secretion assay. The class given is cell-based, rat. Here is the method: (§1) For insulin secretion assay, the INS-1E cells, a gift from Prof. Wollheim (CMU, Geneva, Switzerland)[53], were seeded on 6 well plate and cultured with recombinant mouse IFNγ (100 units/mL; R&D Systems) and recombinant human IL-1β (5 units/mL; R&D Systems) in the presence or absence of PAD2/PAD4 inhibitor (5 µM YW3-56; Cayman) for 48 hrs. Cells were washed and starved for 1 hr in low-glucose KREBS buffer (138 mM NaCl, 4.7 mM KCl, 1 mM CaCl2, 1.18 mM KH2PO4, 1.18 mM MgSO4, 5 mM NaHCO3, 25 mM Hepes (pH7.4), 0.1% BSA and 2.5 mM glucose). Assay buffer was then replaced with KREBS buffer containing either varying glucose concentration (2.5, 5, 9 and 16.7 mM), 10 mM sodium pyruvate or 30 mM KCl. After another 1 hr incubation, supernatants were collected and assayed for insulin by using Rat High Range Insulin ELISA kit (ALPCP) according to manufacturer’s protocol and analyzed using Microsoft excel Software. All experiments were performed using INS-1E cells between the 61st and 65th passage.

Experiment [3] deals with INS-1E cells. Nature of the experiment: Protein citrullination immunoblot (anti-modified citrulline). The class given is cell-based, rat. The following applies: IFNγ 100U/ml plus IL-1β 5U/ml, 5 µM YW3-56, 48 hrs.
From the text: Presence of citrullinated protein was detected by using anti-citrulline (Abcam, ab6464) for immunohistochemistry as described elsewhere, by using anti-peptidyl-citrulline, clone F95 (Millipore, MABN328) for flow cytometry and confocal microscopy and by using anti-modified citrulline detection kit, clone C4 (Millipore, 17-347B) for immunoblot according to manufacturer’s protocol. The specificity and sensitivity of the above commercial antibodies for the detection of protein citrullination were described previously[47],[48] and in our recent reports[9],[51],[52].
as §1, with “Assay buffer was then replaced with KREBS buffer containing either varying glucose concentration (2.5, 5, 9 and 16.7 mM), 10 mM sodium pyruvate or 30 mM KCl.” left out, “All experiments were performed using INS-1E cells between the 61st and 65th passage.” left out
On the technique in general: Immunoblotting shows a protein as a band on a membrane.

In experiment [4] the test system is PAD4. The note with it: pan-PAD inhibitor; no reference printed (compound from Cayman); cited from earlier work. The procedure: Proinflammatory cytokines are known to attenuate glucose stimulated insulin secretion (GSIS), mediated by glucokinase, as studied elsewhere[29]–[31]. We utilized a subclonal cell line from the parenteral INS-1 cells, INS-1E, to examine GSIS and how citrullination may alter the glucose sensing/insulin secreting metabolic pathway. We also utilized YW3-56, a pan-PAD inhibitor (IC50: […] and 1–5 µM for PAD2 and PAD4, respectively), in studies of GSIS in INS-1E cells as a means of blocking protein citrullination. First, we confirmed by immunoblot detection of citrulline that IFNγ+ IL-1β cytoki ...

On to `CCCO[C@H]1CC[C@H](N(C(=O)Nc2ncc(SCC(=O)O)s2)C2CCCCC2)CC1` [TTP399], for which, in experiment [1], the “clinical effect in patients with T1D” value was “lower HbA1C and reduce hypoglycemia without increasing the risk of ketosis”.
Consider YW3-56, for which the “citrullination levels or GSIS, inhibitor alone” value in experiment [2] (5 µM YW3-56 without cytokines, 48 hrs) is listed as “did not affect”. Also, the “cytokine-mediated suppression of insulin secretion upon pyruvate stimulation” value in experiment [2] (10 mM sodium pyruvate, 5 µM YW3-56 with cytokines 48 h) is listed as “able to correct”. For the same compound, the “IFNγ + IL-1β suppressed GSIS” value in experiment [2] (16.7 mM glucose, YW3-56 cocultured with cytokines for 48 h) is recorded as “partially correct”. The “insulin secretion to depolarization with KCL” value in experiment [2] (30 mM KCl, cytokines in the presence or absence of YW3-56) is “not affected”. Moreover, the insulin secretion in experiment [2] (YW3-56 alone (no cytokine), glucose 2.5 (head prints nM), replicate 1) was 20.6698; in experiment [2] (YW3-56 alone, KCl, replicate 1) it was 216.859; in experiment [2] (YW3-56 alone, KCl, replicate 2), 173.302; in experiment [2] (YW3-56 alone, KCl, replicate 3), 216.475; in experiment [2] (YW3-56 alone, glucose 2.5 (head prints nM), replicate 2), 24.1975; in experiment [2] (YW3-56 alone, glucose 2.5 (head prints nM), replicate 3), 21.4049. Further, the insulin secretion in experiment [2] (YW3-56 alone, glucose 5 (head prints nM), replicate 1) worked out at 75.1459; in experiment [2] (YW3-56 alone, glucose 5 (head prints nM), replicate 2) it was 84.4819; in experiment [2] (YW3-56 alone, glucose 5 (head prints nM), replicate 3), 61.4806; in experiment [2] (YW3-56 alone, glucose 16.7 (head prints nM), replicate 1), 227.056; in experiment [2] (YW3-56 alone, glucose 16.7 (head prints nM), replicate 2) it was 273.99; in experiment [2] (YW3-56 alone, glucose 16.7 (head prints nM), replicate 3), 236.558. Besides, the insulin secretion was 292.452 in experiment [2] (YW3-56 alone, pyruvate, replicate 1); 273.99 in experiment [2] (YW3-56 alone, pyruvate, replicate 2); 273.99 in experiment [2] (YW3-56 alone, pyruvate, replicate 3); 42.5356 in experiment [2] (cytokine (IFNγ + IL-1β) + YW3-56 5 µM 48 hrs, 1 hr glucose 2.5 (head prints nM), replicate 1); 91.8746 in experiment [2] (cytokine + YW3-56 48 hrs, KCl, replicate 1); 82.0356 in experiment [2] (cytokine + YW3-56 48 hrs, KCl, replicate 2). Further, the insulin secretion in experiment [2] (cytokine + YW3-56 48 hrs, KCl, replicate 3) worked out at 59.5376; in experiment [2] (cytokine + YW3-56 48 hrs, glucose 2.5 (head prints nM), replicate 2), 26.9388; in experiment [2] (cytokine + YW3-56 48 hrs, glucose 2.5 (head prints nM), replicate 3) it was 26.5034; in experiment [2] (cytokine + YW3-56 48 hrs, glucose 5 (head prints nM), replicate 1) it was 38.7513; in experiment [2] (cytokine + YW3-56 48 hrs, glucose 5 (head prints nM), replicate 2), 47.2935; in experiment [2] (cytokine + YW3-56 48 hrs, glucose 5 (head prints nM), replicate 3) it was 37.2188. Moreover, the insulin secretion was 95.9987 in experiment [2] (cytokine + YW3-56 48 hrs, glucose 16.7 (head prints nM), replicate 1); 101.342 in experiment [2] (cytokine + YW3-56 48 hrs, glucose 16.7 (head prints nM), replicate 2); 93.7876 in experiment [2] (cytokine + YW3-56 48 hrs, glucose 16.7 (head prints nM), replicate 3); 78.6578 in experiment [2] (cytokine + YW3-56 48 hrs, pyruvate, replicate 1); 90.7306 in experiment [2] (cytokine + YW3-56 48 hrs, pyruvate, replicate 2); 140.964 in experiment [2] (cytokine + YW3-56 48 hrs, pyruvate, replicate 3). For the same compound, in experiment [3], the “IFNγ+ IL-1β cytokine-induced citrullination levels” value is given as “reduced”. For the same compound, the IC50 in experiment [4] was 1 to 5 µM.
